Experimental data: ChEMBL document CHEMBL3885861, “Open TG-GATES”

Organism: Rattus norvegicus
Assay: Open TG-GATES - Regimen: Daily Repeat
Assay type: toxicity, organism-based, Sprague-Dawley
Set-up: regimen Daily Repeat, gender Male, age 6 weeks
Details: in vivo, po, 150 mg/kg, route gavage, dose level Middle; for APTT / Bas / Eos / Fbg / Hb / Ht / Lym / MCH / MCHC / MCV / Mono / Neu / PT / Plat / RBC / Ret / WBC: tissue Blood; for KIDNEY_L / KIDNEY_R / KIDNEY_TOTAL: tissue Kidney; for LIVER: tissue Liver; for A/G / ALP / ALT / AST / BUN / CRE / Ca / Cl / DBIL / GLC / IP / K / LDH / Na / PL / RALB / TBIL / TC / TG / TP / gamma-GTP: tissue Plasma

## CN1C(=O)OC(C)(C)C1=O [TRIMETHADIONE]
72 h, time 3 day
  TERMINAL_BW: 237.3 g
  APTT: 16.6 s
  Bas: 0%
  Eos: 1.2%
  Fbg: 277.6 mg/dL
  Hb: 13.9 g/dL
  Ht: 41.2%
  Lym: 73.4%
  MCH: 22 pg
  MCHC: 33.7%
  MCV: 65.2 fL
  Mono: 2.8%
  Neu: 22.6%
  PT: 13 s
  Plat: 127.9 x10_4/uL
  RBC: 632 x10_4/ul
  Ret: 6.9%
  WBC: 82.5 x10_2/uL
  KIDNEY_L: 1 g
  KIDNEY_R: 0.9 g
  KIDNEY_TOTAL: 1.9 g
  LIVER: 11.2 g
  A/G: 0.8
  ALP: 1577 IU/L
  ALT: 42.4 IU/L
  AST: 78.2 IU/L
  BUN: 17.2 mg/dL
  CRE: 0.2 mg/dL
  Ca: 11.2 mg/dL
  Cl: 105 meq/L
  DBIL: 0.004 mg/dL
  GLC: 180.6 mg/dL
  IP: 6.9 mg/dL
  K: 4.4 meq/L
  LDH: 85.6 IU/L
  Na: 142.2 meq/L
  PL: 172.8 mg/dL
  RALB: 2.6 g/dL
  TBIL: 0.042 mg/dL
  TC: 91.4 mg/dL
  TG: 115.6 mg/dL
  TP: 5.7 g/dL
  gamma-GTP: 1 IU/L
[…], time 7 day
  TERMINAL_BW: 275.1 g
  APTT: 22.2 s
  Bas: 0%
  Eos: 1%
  Fbg: 283.8 mg/dL
  Hb: 13.8 g/dL
  Ht: 40.4%
  Lym: 75%
  MCH: 21.5 pg
  MCHC: 34.1%
  MCV: 62.9 fL
  Mono: 2.6%
  Neu: 21.2%
  PT: 13.9 s
  Plat: 129.5 x10_4/uL
  RBC: 642.6 x10_4/ul
  Ret: 5.6%
  WBC: 92.5 x10_2/uL
  KIDNEY_L: 1.3 g
  KIDNEY_R: 1.2 g
  KIDNEY_TOTAL: 2.5 g
  LIVER: 13 g
  A/G: 0.9
  ALP: 1744.2 IU/L
  ALT: 51.6 IU/L
  AST: 85.6 IU/L
  BUN: 15.8 mg/dL
  CRE: 0.2 mg/dL
  Ca: 10.8 mg/dL
  Cl: 103.4 meq/L
  DBIL: 0.01 mg/dL
  GLC: 192.6 mg/dL
  IP: 6.9 mg/dL
  K: 4.2 meq/L
  LDH: 92.4 IU/L
  Na: 144.2 meq/L
  PL: 159.8 mg/dL
  RALB: 2.6 g/dL
  TBIL: 0.04 mg/dL
  TC: 74.2 mg/dL
  TG: 138.2 mg/dL
  TP: 5.7 g/dL
  gamma-GTP: 1.2 IU/L
[…], time 14 day
  TERMINAL_BW: 335.8 g
  APTT: 25.9 s
  Bas: 0.2%
  Eos: 1%
  Fbg: 268.4 mg/dL
  Hb: 14.4 g/dL
  Ht: 41.6%
  Lym: 71.6%
  MCH: 20.8 pg
  MCHC: 34.6%
  MCV: 60.2 fL
  Mono: 2.2%
  Neu: 24.6%
  PT: 13.6 s
  Plat: 123.5 x10_4/uL
  RBC: 691.2 x10_4/ul
  Ret: 4.5%
  WBC: 132.8 x10_2/uL
  KIDNEY_L: 1.4 g
  KIDNEY_R: 1.4 g
  KIDNEY_TOTAL: 2.8 g
  LIVER: 15.2 g
  A/G: 0.8
  ALP: 1516.8 IU/L
  ALT: 46.8 IU/L
  AST: 73.2 IU/L
  BUN: 16.4 mg/dL
  CRE: 0.2 mg/dL
  Ca: 10.7 mg/dL
  Cl: 102.6 meq/L
  DBIL: 0.004 mg/dL
  GLC: 180.6 mg/dL
  IP: 6.6 mg/dL
  K: 4.2 meq/L
  LDH: 116.4 IU/L
  Na: 144.2 meq/L
  PL: 154.4 mg/dL
  RALB: 2.7 g/dL
  TBIL: 0.032 mg/dL
  TC: 73.2 mg/dL
  TG: 138.8 mg/dL
  TP: 6.2 g/dL
  gamma-GTP: 1 IU/L
[…], time 28 day
  TERMINAL_BW: 410.9 g
  APTT: 21.9 s
  Bas: 0%
  Eos: 1.2%
  Fbg: 270.8 mg/dL
  Hb: 15.8 g/dL
  Ht: 45%
  Lym: 74.8%
  MCH: 19.6 pg
  MCHC: 35%
  MCV: 56.2 fL
  Mono: 2%
  Neu: 21.8%
  PT: 14.3 s
  Plat: 113.7 x10_4/uL
  RBC: 800.2 x10_4/ul
  Ret: 2%
  WBC: 103.2 x10_2/uL
  KIDNEY_L: 1.6 g
  KIDNEY_R: 1.7 g
  KIDNEY_TOTAL: 3.3 g
  LIVER: 16.5 g
  A/G: 0.8
  ALP: 1150.5 IU/L
  ALT: 37.8 IU/L
  AST: 77.5 IU/L
  BUN: 16 mg/dL
  CRE: 0.3 mg/dL
  Ca: 10.4 mg/dL
  Cl: 101.8 meq/L
  DBIL: 0.005 mg/dL
  GLC: 170.8 mg/dL
  IP: 5.5 mg/dL
  K: 4.1 meq/L
  LDH: 77.2 IU/L
  Na: 143 meq/L
  PL: 161 mg/dL
  RALB: 2.7 g/dL
  TBIL: 0.0325 mg/dL
  TC: 76.8 mg/dL
  TG: 146.8 mg/dL
  TP: 6.2 g/dL
  gamma-GTP: 1.2 IU/L
